The values below come from US20030215523A1, “Medicinal compositions for concomitant use as anticancer agent” (priority 2000, published 2003).

Data set [1] deals with Human colon cancer strain Colo320D.M. Briefly: Combined use of E7070 and 5-FU in human colon cancer Colo320D.M. xenograft model. As to conditions: for Toxicity Dead/Treated: Colo320D.M. xenograft, nude mice, E7070 30 mg/kg/day QDx5, 5-FU 60 mg/kg/day Q4Dx3. The source says:
(§1) J Natl Cancer Inst. Jun. 5, 1996;88(11):747-53; (iii) Effects of growth hormone and testosterone on cortical bone formation and bone density in aged orchiectomized rats. Bone. 1999 May;24(5):491-7).

In data set [2] the test system is Human non-small cell lung cancer LU-99. As to conditions: for Tx4 (days) mean ± S.D.: time in days for tumor size to attain 4 folds of initial tumor size: LU-99 s.c. in nude mice, E7070 25 mg/kg/day i.v. QDx5, CDDP 7.5 mg/kg/day i.v. single dose, + simultaneous (E7070 day 1-5, CDDP day 1), E7070 → CDDP (day 6), CDDP (day 1) → E7070 (day 2-6).
Source text: as §1

Data set [3] deals with Human colon cancer strain HCT15. Particulars: for Tx4 (days) mean ± S.D.: time in days for tumor size to attain 4 folds of initial tumor size: HCT15 s.c. in nude mice, E7070 30 mg/kg/day i.v. QDx5 (day 1-5), CPT-11 75 mg/kg/day i.v. Q4Dx3 (day 1, 5, 9); for Toxicity Dead/Treated: HCT15 xenograft, nude mice, E7070 30 mg/kg/day QDx5, CPT-11 75 mg/kg/day Q4Dx3.
Source text: as §1

Data set [4] deals with Human colon cancer strain SW620. Put plainly: Combined use of E7070 and CPT-11 in human colon cancer SW620 xenograft model. Particulars: for Tx4 (days) mean ± S.D.: time in days for tumor size to attain 4 folds of initial tumor size: SW620 s.c. in nude mice, E7070 25 mg/kg/day i.v. QDx5, CPT-11 62.5 mg/kg/day i.v. Q4Dx3, + simultaneous (E7070 day 1-5, CPT-11 day 1, 5, 9), E7070 → CPT-11 (day 6, 10, 14), CPT-11 → E7070 (day 10-14); for Toxicity mRBW (minimum relative body weight) mean: parentheses: day when RBW was minimal.
Source text: as §1
E7070 alone was intravenously administered once per day for5 days (first to fifth days), while CPT-11 alone was intravenously administered 3 times (once every 4 days, that is, on the first, fifth and ninth days).

A further data set deals with Human breast cancer HBC4. Briefly: Combined use of E7070 and capecitabine in human breast cancer HBC4 xenograft model. Type of data set: in vivo.
Source text: as §1
On the technique in general: In xenograft studies the graft and the host belong to different species.

Data set [5] deals with Human colon cancer strain HCT15. Put plainly: Combined use of E7070 and MMC in human colon cancer HCT15 xenograft model. Particulars: for Tx4 (days) mean ± S.D.: time in days for tumor size to attain 4 folds of initial tumor size: HCT15 s.c. in nude mice, E7070 25 mg/kg/day i.v. QDx5 (day 1-5; combination row prints 30 mg/kg/day), MMC 4.19 mg/kg/day i.v. single dose (day 1); for Toxicity Dead/Treated: HCT15 xenograft, nude mice, E7070 QDx5, MMC 4.19 mg/kg/day QDx1.
Source text: as §1

A short description of data set [6]: Further anticancer agents examined for synergistic effect in combined use with E7070. As to conditions: used in the compositions of the invention (with E7070); model and data not given.
[7] abbreviates: SW620 xenograft, nude mice, E7070 25 mg/kg/day QDx5, CPT-11 62.5 mg/kg/day Q4Dx3.
The mark [8] stands for this setting: HBC4 xenograft, nude mice, E7070 30.625 mg/kg/day, capecitabine 1.3125 mmol/kg/day.
Setting [9] is: LU-99 xenograft, nude mice, E7070 25 mg/kg/day QDx5, CDDP 7.5 mg/kg/day QDx1.

Molecules are shown by their SMILES. Counter-ions that a name gives are not always drawn. Like-named read-outs stand apart in the source and are kept apart here.

Consider `O=c1[nH]cc(F)c(=O)[nH]1` [5-FU, 5-fluoro-2,4-(1H,3H)-pyrimidinedione, reference compound], for which, in data set [1], the “Toxicity Dead/Treated” value is reported as 0/6.
Consider `N.N.[Cl][Pt][Cl]` [CDDP, cis-diamminedichloroplatinum, reference compound], for which, in data set [2], the “Tx4 (days) mean ± S.D.: time in days for tumor size to attain 4 folds of initial tumor size” value (“Tx4 … to attain 4 folds of initial tumor size” for short) is recorded as 10.7 ± 0.5 days.
Consider `CCc1c2c(nc3ccc(OC(=O)N4CCC(N5CCCCC5)CC4)cc13)-c1cc3c(c(=O)n1C2)COC(=O)[C@]3(O)CC` [CPT-11, [1,4′-Bipiperidine]-1′-carboxylic acid (S)-4,11-diethyl-3,4,12,14-tetrahydro-4-hydroxy-3,14-dioxo-1H-pyrano-[3′,4′:6,7]-indolizino[1,2-b]quinolin-9-yl ester Hydrochloride trihydrate, reference compound], for which, in data set [3], the “Tx4 … to attain 4 folds of initial tumor size” value was 17.8 ± 1.0 days and the “Toxicity Dead/Treated” value was 0/6. Also, in data set [4], the “Tx4 … to attain 4 folds of initial tumor size” value came to 48.7 ± 29.7 days. For the same compound, in data set [4] (setting [7]), the “Toxicity Dead/Treated” value is given as 0/6 and the “Toxicity mRBW (minimum relative body weight) mean” value is given as 0.99(8).
For the compound `NS(=O)(=O)c1ccc(S(=O)(=O)Nc2cccc3c(Cl)c[nH]c23)cc1` [E7070, N-(3-chloro-1H-indol-7-yl)-4-sulfamoylbenzenesulfonamide], the “Tx4 (days): time in days for tumor size to attain 4 folds of initial size” value with Human breast cancer HBC4 (HBC4 s.c. in nude mice, E7070 30.625 mg/kg/day (87.5% MTD) once per day for 5 days, capecitabine 1.3125 mmol/kg/day (87.5% MTD) once per day for 14 days, combination: E7070 day 1-5, capecitabine day 6-19) came to 50.0 ± 8.1 days. Moreover, in the data set with Human breast cancer HBC4 (setting [8]), the “CR, complete response: incidence of tumor free mice” value was 0/6. Moreover, the “PR, partial response: incidence of tumor regression (more than 50% of tumor regression)” value in the data set with Human breast cancer HBC4 (setting [8]) was 6/6. Further, the “mRTV (minimum relative tumor volume)” value with Human breast cancer HBC4 (setting [8]) was found to be 0.24 ± 0.07. Further, in the data set on Human breast cancer HBC4 (HBC4 xenograft, Tx4 of treated versus control, E7070 30.625 mg/kg/day, capecitabine 1.3125 mmol/kg/day), the “T · C” value came to 28.0 days. Further, the “Tx4 … to attain 4 folds of initial tumor size” value came to 11.2 ± 1.9 days in data set [1] (Colo320D.M. s.c. in nude mice, E7070 30 mg/kg/day i.v. QDx5, 5-FU 60 mg/kg/day i.v. Q4Dx3, + simultaneous (E7070 day 1-5, 5-FU day 1, 5, 9), E7070 → 5-FU (day 6, 10, 14), 5-FU → E7070 (day 10-14)); 18.2 ± 2.3 days in data set [2]; 18.7 ± 2.0 days in data set [3]; 30.2 ± 6.1 days in data set [4]; 12.7 ± 2.2 days in data set [5]. For the same compound, the “Toxicity Dead/Treated” value in data set [1], in data set [2] (setting [9]), in data set [3], in data set [4] (setting [7]) and in data set [5] was 0/6 in each case. Besides, the “mRTV (minimum relative tumor volume) mean ± S.D.” value was 0.75 ± 0.16 in data set [2] (setting [9]) and 0.76 ± 0.42(12) in data set [4] (SW620 xenograft, nude mice, E7070 25 mg/kg/day QDx5, CPT-11 62.5 mg/kg/day Q4Dx3, parentheses: day when RTV was minimal). Moreover, the “Toxicity mRBW (minimum relative body weight) mean” value in data set [4] (setting [7]) is on record as 0.98(8).
For the compound `CO[C@@]12[C@H](COC(N)=O)C3=C(C(=O)C(C)=C(N)C3=O)N1C[C@@H]1N[C@@H]12` [MMC, [1aS-(1aα,8β,8aα,8bα)]-6-amino-8-[[(aminocarbonyl)oxy]methyl]1,1a,2,8,8a,8b-hexahydro-8a-methoxy-5-methylazirino[2′,3′:3,4]pyrrolo[1,2-a]indole-4,7-dione, reference compound], in data set [5], the “Tx4 … to attain 4 folds of initial tumor size” value worked out at 16.2 ± 3.4 days and the “Toxicity Dead/Treated” value is on record as 0/6.
For the compound `COc1cccc2c1C(=O)c1c(O)c3c(c(O)c1C2=O)C[C@@](O)(C(=O)CO)C[C@@H]3O[C@H]1C[C@H](N)[C@H](O)[C@H](C)O1` [doxorubicin, 10-[(3-amino-2,3,6-trideoxy-α-L-1yxo-hexopyranosyl)oxy]-7,8,9,10-tetrahydro-6,8,11-trihydroxy-8-(hydroxyacetyl)-1-methoxy-(8S-cis)-5,12-naphthacenedione], the “Antitumor activity when examined for synergistic effect (in words)” value in data set [6] was “excellent antitumor activity”.
On to `Nc1ccn([C@@H]2O[C@H](CO)[C@@H](O)C2(F)F)c(=O)n1` [gemcitabine hydrochloride, 2′-deoxy-2′,2′-difluoro-cytidine hydrochloride], for which the “Antitumor activity when examined for synergistic effect (in words)” value in data set [6] is reported as “excellent antitumor activity”.
